# From PubChem BioAssay AID1259407 (Chemical Carcinogenesis Research Information System (CCRIS), 2018)
# Active and inactive are the calls of the source. No rule for the calls is given here.
# Test system: CCRIS mutagenicity, Ames/micronucleus/aberration tests
# Assay: CCRIS mutagenicity studies
smiles,measurement,setting,value
CCOS(C)(=O)=O,mutagenic call,"End Point: IN VITRO MICRONUCLEUS, Test System: CHL/IU CELLS, Metabolic Activation: NONE",active; positive
same,mutagenic call,"End Point: IN VITRO MICRONUCLEUS, Test System: V79 CELLS, Metabolic Activation: NONE",active; positive
same,mutagenic call,"End Point: In vitro micronucleus, Test System: Chinese Hamster Ovary (CHO-WBL) cells, Metabolic Activation: None",active; positive (p<0.01)
same,mutagenic call,"End Point: In vivo micronucleus, Test System: Micronucleated hepatocytes, Species: Rat, Strain/Sex: F344/Male, Route: Intraperitoneal",inactive; negative
same,mutagenic call,"End Point: In vivo micronucleus, Test System: Micronucleated hepatocytes, Species: Rat, Strain/Sex: F344/Male, Route: Oral",inactive; negative
same,mutagenic call,"Test System: AMES SALMONELLA TYPHIMURIUM, Strain/Indicator: TA98, Metabolic Activation: NONE, Method: SPIRAL ASSAY",inactive; negative
same,mutagenic call,"Test System: AMES SALMONELLA TYPHIMURIUM, Strain/Indicator: TA98, Metabolic Activation: NONE, Method: STANDARD PLATE",inactive; negative
same,mutagenic call,"Test System: AMES SALMONELLA TYPHIMURIUM, Strain/Indicator: TA98, Metabolic Activation: RAT, LIVER, S-9, AROCLOR 1254, Method: SPIRAL ASSAY",active; positive
same,mutagenic call,"Test System: AMES SALMONELLA TYPHIMURIUM, Strain/Indicator: TA100, Metabolic Activation: NONE, Method: SPIRAL ASSAY",active; positive
same,mutagenic call,"Test System: AMES SALMONELLA TYPHIMURIUM, Strain/Indicator: TA100, Metabolic Activation: NONE, Method: STANDARD PLATE",active; positive
same,mutagenic call,"Test System: AMES SALMONELLA TYPHIMURIUM, Strain/Indicator: TA100, Metabolic Activation: RAT, LIVER, S-9, AROCLOR 1254, Method: SPIRAL ASSAY",inactive; negative
same,mutagenic call,"Test System: AMES SALMONELLA TYPHIMURIUM, Strain/Indicator: TA100, Metabolic Activation: RAT, LIVER, S-9, AROCLOR 1254, Method: STANDARD PLATE",active; positive
same,mutagenic call,"Test System: AMES SALMONELLA TYPHIMURIUM, Strain/Indicator: TA1535, Metabolic Activation: NONE, Method: SPIRAL ASSAY",active; positive
same,mutagenic call,"Test System: AMES SALMONELLA TYPHIMURIUM, Strain/Indicator: TA1535, Metabolic Activation: NONE, Method: STANDARD PLATE",active; positive
same,mutagenic call,"Test System: AMES SALMONELLA TYPHIMURIUM, Strain/Indicator: TA1535, Metabolic Activation: RAT, LIVER, S-9, AROCLOR 1254, Method: SPIRAL ASSAY",active; positive
same,mutagenic call,"Test System: AMES SALMONELLA TYPHIMURIUM, Strain/Indicator: TA1535, Metabolic Activation: RAT, LIVER, S-9, AROCLOR 1254, Method: STANDARD PLATE",active; positive
same,mutagenic call,"Test System: AMES SALMONELLA TYPHIMURIUM, Strain/Indicator: TA1537, Metabolic Activation: NONE, Method: SPIRAL ASSAY",inactive; negative
same,mutagenic call,"Test System: AMES SALMONELLA TYPHIMURIUM, Strain/Indicator: TA1537, Metabolic Activation: NONE, Method: STANDARD PLATE",active; positive
same,mutagenic call,"Test System: AMES SALMONELLA TYPHIMURIUM, Strain/Indicator: TA1537, Metabolic Activation: RAT, LIVER, S-9, AROCLOR 1254, Method: SPIRAL ASSAY",inactive; negative
same,mutagenic call,"Test System: AMES SALMONELLA TYPHIMURIUM, Strain/Indicator: TA1537, Metabolic Activation: RAT, LIVER, S-9, AROCLOR 1254, Method: STANDARD PLATE",active; positive
same,mutagenic call,"Test System: AMES SALMONELLA TYPHIMURIUM, Strain/Indicator: TA1538, Metabolic Activation: RAT, LIVER, S-9, AROCLOR 1254, Method: STANDARD PLATE",active; positive
same,mutagenic call,"Test System: AMES SALMONELLA TYPHIMURIUM, Strain/Indicator: YG7100, Metabolic Activation: NONE, Method: PREINCUBATION",inactive; negative
same,mutagenic call,"Test System: AMES SALMONELLA TYPHIMURIUM, Strain/Indicator: YG7104, Metabolic Activation: NONE, Method: PREINCUBATION",active; positive
same,mutagenic call,"Test System: AMES SALMONELLA TYPHIMURIUM, Strain/Indicator: YG7108, Metabolic Activation: NONE, Method: PREINCUBATION",active; positive
same,mutagenic call,"Test System: AMES SALMONELLA TYPHIMURIUM, Strain/Indicator: YG7112, Metabolic Activation: NONE, Method: PREINCUBATION",active; positive
same,mutagenic call,"Test System: AMES SALMONELLA TYPHIMURIUM, Strain/Indicator: YG7113, Metabolic Activation: NONE, Method: PREINCUBATION",active; positive
same,mutagenic call,"Test System: AMES SALMONELLA TYPHIMURIUM, Strain/Indicator: YG7119, Metabolic Activation: NONE, Method: PREINCUBATION",inactive; negative
same,mutagenic call,"Test System: CHINESE HAMSTER OVARY, Strain/Indicator: CHO-K1-BH4 (HGPRT)/6-THIOGUANINE, Metabolic Activation: NONE, Method: LIQUID SUSPENSION",active; positive
same,mutagenic call,"Test System: CHINESE HAMSTER OVARY, Strain/Indicator: CHO-K1-BH4 (HGPRT)/6-THIOGUANINE, Metabolic Activation: NONE, Method: SUSPENSION/PLATE",active; positive
same,mutagenic call,"Test System: CHINESE HAMSTER OVARY, Strain/Indicator: CHO-K1-BH4 (HGPRT), Metabolic Activation: NONE, Method: MONOLAYER",active; positive
same,mutagenic call,"Test System: CHINESE HAMSTER OVARY, Strain/Indicator: CHO-K1-BH4 (HGPRT), Metabolic Activation: NONE, Method: SUSPENSION/PLATE",active; positive
same,mutagenic call,"Test System: CHINESE HAMSTER V-79, Strain/Indicator: V-79 (HGPRT)/6-THIOGUANINE, Metabolic Activation: NONE",active; positive
same,mutagenic call,"Test System: CHINESE HAMSTER V-79, Strain/Indicator: V-79 (HPRT)/6-THIOGUANINE, Metabolic Activation: NONE, Method: FLUCTUATION TEST",active; positive
same,mutagenic call,"Test System: CHINESE HAMSTER V-79, Strain/Indicator: V-79-MZ (HPRT)/6-THIOGUANINE, Metabolic Activation: NONE",active; positive
same,mutagenic call,"Test System: CHINESE HAMSTER V-79, Strain/Indicator: V-79-UL (HPRT)/6-THIOGUANINE, Metabolic Activation: NONE",active; positive
same,mutagenic call,"Test System: CHINESE HAMSTER V-79, Strain/Indicator: V-79/6-THIOGUANINE, Metabolic Activation: NONE, Method: FLASK ASSAY",active; positive
same,mutagenic call,"Test System: CHINESE HAMSTER V-79, Strain/Indicator: V-79/6-THIOGUANINE, Metabolic Activation: NONE, Method: LIQUID SUSPENSION",active; positive
same,mutagenic call,"Test System: CHINESE HAMSTER V-79, Strain/Indicator: V-79/6-THIOGUANINE, Metabolic Activation: NONE, Method: STANDARD PLATE",active; positive
same,mutagenic call,"Test System: CHINESE HAMSTER V-79, Strain/Indicator: V-79/6-THIOGUANINE, Metabolic Activation: NONE, Method: SUSPENSION/PLATE",active; positive
same,mutagenic call,"Test System: CHINESE HAMSTER V-79, Strain/Indicator: V-79/8-AZAGUANINE, Metabolic Activation: NONE, Method: STANDARD PLATE",active; positive
same,mutagenic call,"Test System: CHINESE HAMSTER V-79, Strain/Indicator: V-79/8-AZAGUANINE, Metabolic Activation: NONE, Method: SUSPENSION/PLATE",active; positive
same,mutagenic call,"Test System: CHINESE HAMSTER V-79, Strain/Indicator: V-79/OUABAIN, Metabolic Activation: NONE, Method: STANDARD PLATE",active; positive
same,mutagenic call,"Test System: CHINESE HAMSTER V-79, Strain/Indicator: V-79/OUABAIN, Metabolic Activation: NONE, Method: SUSPENSION/PLATE",active; positive
same,mutagenic call,"Test System: CHO/HGPRT, Strain/Indicator: CHO-K1-BH4, Metabolic Activation: MOUSE, IN VIVO, Method: HOST-MEDIATED",active; positive
same,mutagenic call,"Test System: E. COLI, Strain/Indicator: WP2, Metabolic Activation: NONE, Method: STANDARD PLATE",active; positive
same,mutagenic call,"Test System: E. COLI, Strain/Indicator: WP2, Metabolic Activation: RAT, LIVER, S-9, AROCLOR 1254, Method: STANDARD PLATE",active; positive
same,mutagenic call,"Test System: E. COLI, Strain/Indicator: WP2 UVRA, Metabolic Activation: HAMSTER, LIVER, S-9, AROCLOR 1254, Method: STANDARD PLATE",inactive; negative
same,mutagenic call,"Test System: E. COLI, Strain/Indicator: WP2 UVRA, Metabolic Activation: HAMSTER, LIVER, S-9, Method: STANDARD PLATE",inactive; negative
same,mutagenic call,"Test System: E. COLI, Strain/Indicator: WP2 UVRA, Metabolic Activation: MOUSE, LIVER, S-9, AROCLOR 1254, Method: STANDARD PLATE",inactive; negative
same,mutagenic call,"Test System: E. COLI, Strain/Indicator: WP2 UVRA, Metabolic Activation: MOUSE, LIVER, S-9, Method: STANDARD PLATE",inactive; negative
same,mutagenic call,"Test System: E. COLI, Strain/Indicator: WP2 UVRA, Metabolic Activation: RAT, LIVER, S-9, Method: STANDARD PLATE",inactive; negative
same,mutagenic call,"Test System: MOUSE LYMPHOMA, Strain/Indicator: L5178Y (HGPRT)/6-THIOGUANINE, Metabolic Activation: NONE, Method: SUSPENSION/PLATE",active; positive
same,mutagenic call,"Test System: MOUSE LYMPHOMA, Strain/Indicator: L5178Y (TK+/TK-)/TRIFLUOROTHYMIDINE, Metabolic Activation: NONE, Method: SUSPENSION/PLATE",active; positive
same,mutagenic call,"Test System: MOUSE LYMPHOMA, Strain/Indicator: L5178Y (TK+/TK-), Metabolic Activation: NONE, Method: FLUCTUATION TEST",active; positive
same,mutagenic call,"Test System: MOUSE LYMPHOMA, Strain/Indicator: L5178Y (TK+/TK-), Metabolic Activation: NONE, Method: IN SITU",active; positive
same,mutagenic call,"Test System: MOUSE LYMPHOMA, Strain/Indicator: L5178Y (TK+/TK-), Metabolic Activation: NONE, Method: LIQUID SUSPENSION",active; positive
same,mutagenic call,"Test System: MOUSE LYMPHOMA, Strain/Indicator: L5178Y (TK+/TK-), Metabolic Activation: RAT, LIVER, S-9, AROCLOR 1254, Method: SUSPENSION/PLATE",active; positive
same,mutagenic call,"Test System: UDS HUMAN CELLS, Strain/Indicator: THY INCORP (NON-S-PHASE), Metabolic Activation: NONE, Method: LIQUID SCINTILLATION COUNTING",active; positive
same,mutagenic call,"Test System: UDS HUMAN LYMPHOCYTES, Strain/Indicator: THY INCORP (NON-S-PHASE), Metabolic Activation: NONE, Method: LIQUID SCINTILLATION COUNTING",active; positive
same,mutagenic call,"Test System: UDS RODENT PRIMARY CELLS, Strain/Indicator: THY INCORP (NON-S-PHASE), Metabolic Activation: NONE, Method: LIQUID SCINTILLATION COUNTING",active; positive
